Article PMC3206013, “Unique Interplay between Sugar and Lipid in Determining the Antigenic Potency of Bacterial Antigens for NKT Cells” (PLoS Biology, 2011)
Positions count from the first letter of the chain named.

Key:
Experiment in all cases: SPR loading efficiency, L363 Fab on immobilised loaded CD1d
Format in all cases: binding
[1] = target: T1, mCD1d (birA-tag mCD1d/β2m) (Mus musculus, UniProt P11609, L102F); details: 16 h with 1 µg/ml α-GalCer; WT set at 100%; lower than WT but never below 65%
T1 construct: gene Cd1d1; soluble glycosylated CD1d/β2m heterodimer, birA tag, biotinylated; with Beta-2-microglobulin
T1 sequence (P11609 19-297 L102F): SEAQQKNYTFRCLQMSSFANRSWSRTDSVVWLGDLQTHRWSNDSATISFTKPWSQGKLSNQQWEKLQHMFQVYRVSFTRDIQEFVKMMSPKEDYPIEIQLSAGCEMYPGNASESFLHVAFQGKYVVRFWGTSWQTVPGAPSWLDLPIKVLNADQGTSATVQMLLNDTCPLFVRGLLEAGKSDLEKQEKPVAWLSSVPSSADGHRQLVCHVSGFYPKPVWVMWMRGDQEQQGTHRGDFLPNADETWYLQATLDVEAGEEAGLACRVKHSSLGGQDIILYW
T1 sequence (P01887 21-119 partner): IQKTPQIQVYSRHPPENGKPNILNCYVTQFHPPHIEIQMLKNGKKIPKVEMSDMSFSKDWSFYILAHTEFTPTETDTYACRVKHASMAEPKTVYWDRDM

[2] = target: T2, mCD1d (birA-tag mCD1d/β2m) (Mus musculus, UniProt P11609, M180A); details: 16 h with 1 µg/ml α-GalCer; WT set at 100%; printed Met162Ala and M162A, Met62Ala
T2 construct: gene Cd1d1; soluble glycosylated CD1d/β2m heterodimer, birA tag, biotinylated; with Beta-2-microglobulin
T2 sequence (P11609 19-297 M180A): T1 sequence (P11609 19-297 L102F) with F84L, M162A
T2 sequence (P01887 21-119 partner): T1 sequence (P01887 21-119 partner)

[3] = target: T3, mCD1d (birA-tag mCD1d/β2m) (Mus musculus, UniProt P11609, V167L); details: 16 h with 1 µg/ml α-GalCer; WT set at 100%
T3 construct: gene Cd1d1; soluble glycosylated CD1d/β2m heterodimer, birA tag, biotinylated; with Beta-2-microglobulin
T3 sequence (P11609 19-297 V167L): T1 sequence (P11609 19-297 L102F) with F84L, V149L
T3 sequence (P01887 21-119 partner): T1 sequence (P01887 21-119 partner)

[4] = target: T4, mCD1d (birA-tag mCD1d/β2m) (Mus musculus, UniProt P11609, L168V); details: 16 h with 1 µg/ml α-GalCer; WT set at 100%
T4 construct: gene Cd1d1; soluble glycosylated CD1d/β2m heterodimer, birA tag, biotinylated; with Beta-2-microglobulin
T4 sequence (P11609 19-297 L168V): T1 sequence (P11609 19-297 L102F) with F84L, L150V
T4 sequence (P01887 21-119 partner): T1 sequence (P01887 21-119 partner)

[5] = target: T5, mCD1d (birA-tag mCD1d/β2m) (Mus musculus, UniProt P11609); details: 16 h with 1 µg/ml α-GalCer; reference set at 100%
T5 construct: gene Cd1d1; soluble glycosylated CD1d/β2m heterodimer, birA tag, biotinylated; with Beta-2-microglobulin
T5 sequence (P11609 19-297): T1 sequence (P11609 19-297 L102F) with F84L
T5 sequence (P01887 21-119 partner): T1 sequence (P01887 21-119 partner)

CCCCCCCCCCCCCCCCCCCCCCCCCC(=O)N[C@@H](CO[C@H]1O[C@H](CO)[C@H](O)[C@H](O)[C@H]1O)[C@H](O)[C@H](O)CCCCCCCCCCCCCC [α-GalCer]
antigen loading efficiency, % of WT [1]: Leu84Phe and Met62Ala mutants showed lower levels of antigen loading compared to wild type
antigen loading efficiency, % of WT [2]: Leu84Phe and Met62Ala mutants showed lower levels of antigen loading compared to wild type
antigen loading efficiency, % of WT [3]: we measured the loading efficiency of α-GalCer on each mutant by surface plasmon resonance
antigen loading efficiency, % of WT [4]: we measured the loading efficiency of α-GalCer on each mutant by surface plasmon resonance
antigen loading efficiency, % of WT [5]: Relative antigen loading efficiencies by the mCD1d mutants as determined by surface plasmon resonance
